Measured values reported in PubChem BioAssay AID2305 (GlaxoSmithKline (GSK), 2010).
Several values for one entry are separate records, joined by “and”; a condition that tells them apart may be missing. Equal values may be shown once.

These molecules were tested on P. falciparum 3D7 growth, pLDH absorbance (assay: blood-stage malaria parasite growth potency – strain 3D7, dose response (AID 2305)).
`Cc1cc(F)ccc1-c1nc(NCC(O)CNCCc2ccccc2)nc2c1ccc(=O)n2-c1c(F)cccc1F` (centres undefined) was tested, and the IC50 was 540 nM.
Work on `Cc1[nH]c(C)c(-c2ccc(Oc3ccc(C(F)(F)F)cc3)cc2)c(=O)c1Br` yielded an IC50 of 210 nM.
Molecule `CCc1cn2c3c(cc(C(=O)N[C@@H](Cc4ccccc4)[C@H](O)CNCCOC)cc13)N(C)S(=O)(=O)CC2` has an IC50 of 950 nM.
Work on `CNCc1ccc2nc(-c3coc(Cc4cc(Cl)ccc4OCC(C)C)n3)[nH]c2c1` yielded an IC50 of 840 nM.
`Cc1ccoc1C(=O)Nc1cccc(-c2cccc(-c3nc4c(C)cccc4[nH]3)c2)c1` was tested, and the IC50 was 670 nM.
`CCNc1cc(C(=O)N[C@@H](Cc2ccccc2)[C@H](O)CNCCc2ccccc2)cc(N2CCCC2=O)c1` showed an IC50 of 840 nM.
Work on `Cc1ccc(S(=O)(=O)NC2CCN(CCNC(=O)Nc3cc(C)nc4ccccc34)C2)cc1` (centres undefined) yielded an IC50 of 1040 nM.
`Cc1c(Cl)cccc1S(=O)(=O)N1CCCCC(c2ccc(C(F)(F)F)cc2)=N1` gave an IC50 of 790 nM.
In the case of `C[C@H](Cc1ccc(OCCCCOc2ccc(C[C@@H](C)NC[C@H](O)c3cccc(Cl)c3)cc2)cc1)NC[C@H](O)c1cccc(Cl)c1`, the IC50 is reported as 760 nM.
For `COc1ccccc1-n1c(SCC(=O)Nc2ccccc2F)nc2cccnc21`, the IC50 was 420 nM.
`CN1CCN(CCCN(Cc2cccc(-c3ccc(CNCc4ccc5c(c4)OCO5)cc3)c2)C(=O)Nc2ccccc2)CC1` gave an IC50 of 680 nM.
With `CNc1ccc(CNCc2ccc(-c3ccc(-c4nc5c(C)cccc5[nH]4)cc3)cc2)cc1` the IC50 was 320 nM.
Molecule `CCNc1cc(C(=O)N[C@@H](Cc2ccccc2)[C@H](O)CNC23CCC(CC2)CC3)cc(N2CCCCS2(=O)=O)c1` has an IC50 of 60 nM.
`COc1ccc2nccc(N3CCC(CCNCc4cc5c(cn4)OCCO5)CC3)c2c1` gave an IC50 of 870 nM.
With `COc1ccc2c(NN=Cc3ccncc3)ccnc2c1` the IC50 was 960 nM.
`Oc1ccc2[nH]c(-c3cccc(F)c3)nc2c1CNCc1ccccc1` was tested, and the IC50 was 920 nM.
`COC(=O)c1ccc(CN2CCC(N(Cc3cccc(Oc4ccccc4)c3)S(=O)(=O)c3ccc(NC(C)=O)cc3)CC2)cc1` was tested, and the IC50 was 1050 nM.
In the case of `COc1ccc(-c2ccc(S(=O)(=O)Nc3cc4c(cc3OC(C)C)CCN(C)CC4)cc2)cc1`, the IC50 is reported as 690 nM.
For `Cc1cc(NC(=O)c2ccco2)ccc1OC1CCN(Cc2ccc(C#N)cc2)CC1`, the IC50 was 500 nM.
Molecule `c1ccc(CN2CCCN(c3ccc4c(c3)CCN(Cc3ccc(-c5ncc[nH]5)cc3)CC4)CC2)cc1` has an IC50 of 760 nM.
For `O=C(/C=C/c1ccc(Cl)c(Cl)c1)NCCCCCN1CCC(NC(=O)c2cccc(Cl)c2)CC1`, the IC50 was 690 nM.
`Oc1ccc(Nc2nc(NCc3ccccc3)c3ccccc3n2)cc1` was tested, and the IC50 was 190 nM.
Work on `CC(CN=C(N)c1cccc(C(N)=NCC(C)Oc2cccc(C3CCCCC3)c2)n1)Oc1cccc(C2CCCCC2)c1` (centres undefined) yielded an IC50 of 920 nM.
With `CCCc1cn2c3c(cc(C(=O)N[C@@H](Cc4ccccc4)[C@H](O)CNC4CCOCC4)cc13)N(CC)S(=O)(=O)CC2` the IC50 was 100 nM.
For `N#Cc1ccc(NC(=NC2CCCc3ccccc32)Nc2ccc(-c3ccccc3)cc2)c(O)c1` (centres undefined), the IC50 was 780 nM.
In the case of `CCOCc1cnc(C)nc1CNC(=O)c1c(C)[nH]c2ccc(C)cc12`, the IC50 is reported as 1010 nM.
`COc1nc2c(N3CCN(CCNCc4ccc5c(n4)NC(=O)CS5)CC3)ccnc2cc1F` showed an IC50 of 710 nM.
`COc1ccc(CN2CCCN(Cc3cccc(NC(=O)c4cc5ccccc5s4)c3)CC2)cc1` was tested, and the IC50 was 840 nM.
With `CC(C)(C)c1cc(C(=O)N2CCN(c3nccnc3C#N)CC2)n(Cc2ccccc2)n1` the IC50 was 760 nM.
Molecule `Cc1ccccc1C1CCN(c2ccc(C(=O)Nc3ccccc3)cn2)CC1` has an IC50 of 330 nM.
With `CCCCNc1ccc(C(=O)NC2CCN(C[C@H](O)c3ccnc4ccc(OC)cc34)CC2)cc1` the IC50 was 440 nM.
Work on `O=C(Nc1ccc(I)cc1)N1CCc2sccc2C1CN1CCCCC1` (centres undefined) yielded an IC50 of 1200 nM.
`CCCCCCCc1cc(O)c2c3c(c(=O)oc2c1)CN(C)CC3` was tested, and the IC50 was 140 nM.
For `Cc1[nH]c(C)c(-c2ccc(C#Cc3ccc(F)cc3F)cc2)c(=O)c1Br`, the IC50 was 30 nM.
Molecule `CCn1c2ccccc2c2cc(Cc3cnc(N)nc3N)ccc21` has an IC50 of 220 nM.
In the case of `O=c1cc(NCCC(CNCc2ccoc2)NCc2cc(Br)cc(Br)c2)[nH]c2ccccc12` (centres undefined), the IC50 is reported as 910 nM.
`Cc1nc2ccccc2c(=O)n1N=Cc1ccccc1[N+](=O)[O-]` gave an IC50 of 220 nM.
Molecule `O=C(C=Cc1ccc(Cl)c(Cl)c1)NCCCCCN1CCCC(CCCNS(=O)(=O)c2ccc(Br)cc2)C1` (centres undefined) has an IC50 of 960 nM.
`COc1cccc(C(=O)[C@H]2C[C@@H]2CN(C)CC(O)c2cc(C)c(OC)cc2C)c1` (some centres undefined) showed an IC50 of 1140 nM.
With `Cc1cc2[nH]c(-c3ccc(C(=O)NCCCN4CCN(c5cccc(Cl)c5)CC4)s3)nc2cc1Cl` the IC50 was 650 nM.
Work on `Cc1nnsc1C(=O)Nc1cccc(-c2ccc(-c3nc4ccc(F)cc4[nH]3)s2)c1` yielded an IC50 of 890 nM.
`CCN(CC)Cc1cc(Nc2ccnc3cc(Cl)ccc23)ccc1O` was tested, and the IC50 was 160 nM.
With `CC(C)c1ccc(NC(=O)c2ccc(CN3CCCN(CC4CCCCC4)CC3)cc2)cc1` the IC50 was 620 nM.
Molecule `Cc1ccc2[nH]c(C3CCCNC3)c(-c3ccncc3)c2c1` (centres undefined) has an IC50 of 1230 nM.
`COc1nc2c(CCN3CC[C@H](NCc4ccc5c(c4)NC(=O)CO5)[C@H](O)C3)c(Cl)cnc2cc1F` showed an IC50 of 1020 nM.
Molecule `COc1ccc2nccc(N3CCC(CCNCc4ccc5c(n4)NC(=O)CO5)CC3)c2n1` has an IC50 of 1000 nM.
For `CCCCc1ccccc1NS(=O)(=O)c1ccc(OC)c(N2CCNCC2)c1`, the IC50 was 1380 nM.
Work on `Cc1ccc(O)cc1Nc1ccnc2ccc(-c3cccc(CN(C)C)c3)cc12` yielded an IC50 of 510 nM.
Molecule `CS(=O)(=O)CCNCc1cccc(-c2cc3c(Nc4ccc(OCc5cccc(F)c5)c(Cl)c4)ncnc3s2)c1` has an IC50 of 200 nM.
`Cc1cccc2[nH]c(-c3cccc(-c4cccc(CNCc5ccc(S(C)(=O)=O)cc5)c4)c3)nc12` was tested, and the IC50 was 300 nM.
`CC(C)(C)c1ccc(C(=O)Nc2ccc(NC(=O)c3ccc([N+](=O)[O-])o3)cc2)cc1` gave an IC50 of 840 nM.
`CC(C)CCCC(C)(C)NC[C@@H](O)[C@H](Cc1ccccc1)NC(=O)c1cccc(OCC2CC2)c1` was tested, and the IC50 was 840 nM.
Work on `O=C(N[C@@H](Cc1ccccc1)CN1CCC(Oc2ccc(F)cc2)CC1)c1ccc(OCCCN2CCCCC2)cc1` yielded an IC50 of 890 nM.
`COc1ccc(CCN2CCC(CN(C)Cc3cnn(-c4ccccc4)c3)CC2)cc1` was tested, and the IC50 was 1160 nM.
Work on `O=C(Nc1ccc(Cl)cc1)c1ccc(CN2CCCN(Cc3cccc(O)c3)CC2)cc1` yielded an IC50 of 390 nM.
In the case of `COc1ccc(CNCc2ccc(-c3ccc(-c4nc5ccc(F)cc5[nH]4)cc3)cc2)cc1`, the IC50 is reported as 250 nM.
For `CC(C)C[C@H](NC(=O)c1cc2ccccc2s1)C(=O)N[C@H]1CCN(Cc2ccc(I)c(OCCN3CCCC3)c2)C1`, the IC50 was 1350 nM.
`N#Cc1cccc(NC(=O)Nc2cccc(OC3CCN(Cc4ccccc4)CC3)c2)c1` was tested, and the IC50 was 840 nM.
With `Oc1ccccc1Nc1nc(NCc2ccco2)c2ccccc2n1` the IC50 was 640 nM.
For `O=C(NCC1CCC1)c1cnc(Nc2cccc(Cl)c2)nc1N1CCC1`, the IC50 was 860 nM.
`CC[C@H]1CN2CC[C@H]1C[C@@H]2[C@@H](O)c1ccnc2ccc(OC)cc12` was tested, and the IC50 was 120 nM.
In the case of `C=C[C@]1(C)C[C@@H](OC(=O)NC(=O)C2CCN(C(=O)CSc3ccccc3)CC2)[C@]2(C)[C@H](C)CC[C@]3(CCC(=O)[C@H]32)[C@@H](C)[C@@H]1O`, the IC50 is reported as 1010 nM.
In the case of `COc1ccc2nccc([C@@H](O)CN3CCC(NCc4ccc5c(c4)NC(=O)CS5)CC3)c2c1`, the IC50 is reported as 570 nM.
With `CCn1cc(CN2CCCC(C(=O)Nc3ccc(-c4nc5ccccc5[nH]4)cc3)C2)cn1` (centres undefined) the IC50 was 930 nM.
Molecule `CNC(=O)COc1ccc(Nc2nnc(-c3ccc(C)c(S(=O)(=O)NCC4CCCO4)c3)c3ccccc23)cc1` (centres undefined) has an IC50 of 930 nM.
`CC(C)N1CCC(N(Cc2ccc(-c3ccc(C(F)(F)F)cc3)cc2)C(=O)CCCn2c(CCc3cccc(F)c3F)nc(=O)c3ccccc32)CC1` gave an IC50 of 970 nM.
`Cc1noc(C)c1-c1ccc2c(Nc3ccc(C#N)cc3)c(C(N)=O)cnc2c1` gave an IC50 of 750 nM.
`C#CCN(Cc1cc2c(=O)[nH]c(N)nc2cc1C)c1ccc(C(=O)N[C@@H](CCC(=O)O)C(=O)O)cc1` gave an IC50 of 630 nM.
`COc1ccc2nc(N3CCNCC3)nc(NCCCc3ccccc3)c2c1` was tested, and the IC50 was 1000 nM.
`c1ccc2c(c1)CN(Cc1ccsc1)CC1(CCN(Cc3c[nH]c4cnccc34)CC1)O2` was tested, and the IC50 was 1150 nM.
Molecule `CN1CCN(c2cc(-c3cccnc3)nc(-c3ccncc3)n2)CC1` has an IC50 of 550 nM.
Work on `CN1CCC(C(=O)Nc2ccc(-c3ccc(-c4nc5ccccc5[nH]4)s3)cc2)CC1` yielded an IC50 of 820 nM.
`CCCc1cc(OC)c(C[C@@H]2c3cc(O)c(Cl)cc3CCN2C)cc1OC` gave an IC50 of 720 nM.
`Clc1cc(Nc2ncnc3sc(C#Cc4ncc[nH]4)cc23)ccc1OCc1ccccn1` showed an IC50 of 1110 nM.
`Cc1cc(NN=Cc2ccccn2)c2cc(F)ccc2n1` showed an IC50 of 760 nM.
In the case of `CS(=O)(=O)N(c1ccccc1)c1cc(C(=O)N[C@@H](Cc2ccccc2)[C@H](O)CNC2CC2)cc(N2CCCC2=O)c1`, the IC50 is reported as 300 nM.
For `CC(C)COc1ccc(Cl)cc1Cc1ccc(-c2nc3ccc(N4CCN(C)CC4)cc3[nH]2)o1`, the IC50 was 950 nM.
`O=C(Nc1ccc(Cl)c(Cl)c1)Nc1ccc2nccc(N3CCN(Cc4ccccc4)CC3)c2c1` showed an IC50 of 160 nM.
In the case of `Cc1cccc2[nH]c(-c3cccc(-c4ccc(NC(=O)Cc5ccccn5)cc4)c3)nc12`, the IC50 is reported as 790 nM.
Work on `Cc1cc(C)c(S(=O)(=O)N2CCCCC(c3cccc(C(F)(F)F)c3)=N2)c(C)c1` yielded an IC50 of 460 nM.
With `C[C@@H](CNc1ccnc(Nc2ccc3[nH]c(=O)[nH]c3c2)n1)c1ccccc1` the IC50 was 1100 nM.
Work on `CCOc1cc(Cc2cnc(N)nc2N)cc(OCC)c1O` yielded an IC50 of 1170 nM.
In the case of `Cc1ccc2cc(NCCCCCCCCON3C(N)=NC(N)=NC34CCCCC4)ccc2n1`, the IC50 is reported as 160 nM.
For `O=[N+]([O-])c1cccc(CNCC2CCN(Cc3ccc(-c4ccccc4)cc3)CC2)c1`, the IC50 was 250 nM.
For `COc1ccc(CNCc2cccc(-c3ccc(-c4nc5c(C)cccc5[nH]4)cc3)c2)cc1`, the IC50 was 240 nM.
Work on `CN1CCN(CC(=O)Nc2cccc(-c3ccc(-c4nc5ccc(C(F)(F)F)cc5[nH]4)s3)c2)CC1` yielded an IC50 of 310 nM.
`COc1cc(NC(=O)c2nn(CCCN3CCC4(CC3)C(=O)NCN4c3ccccc3)cc2-c2ccc(Cl)c(Cl)c2)cc(OC)c1OC` showed an IC50 of 750 nM.
`Cc1cc(-c2ncc[nH]2)ccc1-c1ccc(C(=O)N2CCc3cc4c(cc32)C2(CCN(C)CC2)CO4)cc1` was tested, and the IC50 was 800 nM.
In the case of `COc1cccc(/C=C/C(=O)NC2CCC(CN3CCC(c4c[nH]c5ccccc45)CC3)CC2)c1` (centres undefined), the IC50 is reported as 830 nM and 770 nM.
`CN1CCN(C(C(=O)NCc2cc(Cl)cc(Cl)c2)c2ccc(NC(=O)Nc3ccccc3)cc2)CC1` (centres undefined) was tested, and the IC50 was 690 nM.
Molecule `O=C(Nc1ccc2c(c1)OCCO2)c1cc(-c2cccnc2)nc2ccc(Cl)cc12` has an IC50 of 710 nM.
Molecule `CCc1cc(CNC2CCN(CCc3c(F)cnc4ccc(OC)nc34)CC2)cc2c1OCCO2` has an IC50 of 260 nM.
`COc1cc(NC(=O)c2sc(-c3ccc(Cl)cc3)cc2NC(=O)c2cccc(N(C)C)c2)ccc1OCCN1CCCC1` was tested, and the IC50 was 710 nM.
Work on `O=C(Nc1ccc(-c2nc3ccccc3[nH]2)cc1)c1ccc(N2CCOCC2)c([N+](=O)[O-])c1` yielded an IC50 of 790 nM.
